Key:
Sarcoma 180 = experiment: animal or person; type: in vivo, dd-strain mice; settings: copper-chelated form unless otherwise stated; for Antitumor activity S180 (ED150): ip, once daily 9 days, effective dose 150, survival; for Antitumor therapeutic index S180: single dose LD50/ED150
Text: (§1) The antitumor activity of the tallysomycin derivatives was examined in four experimental tumor systems in mice. Lymphocytic leukemia P388 and Lewis lung carcinoma were implanted intraperitoneally into BDF1 mice of either sex at an inoculum size of 3×10^5 and 5×10^5 cells per mouse, respectively. Sarcoma 180 ascites tumor was inoculated intraperitoneally into male dd-strain mice with […] per mouse. Melanotic melanoma B16 was implanted subcutaneously into BDF1 mice with 5×10^5 cells per mouse. Twenty-four hours after the implantation of tumor cells, graded doses of test compounds were administered to mice intraperitoneally in an injection volume of 0.2 ml. per 10 grams of body weight. Test compounds were given once daily for 9 days (qd 1→9 schedule) except for the mice inoculated with Lewis lung carcinoma which were treated for 11 days (qd 1→11). Death or survival of the treated and non-treated (control) animals was recorded daily during the observation period of 45 days after the implantation of tumor cells, and the median survival time was calculated for each of the test (T) and control (C) groups. […] The actual dose giving a T/C of 125% was estimated by linear regression analysis and defined as the effective dose 125 or ED125. The effective dose 150 (ED150) was employed for the evaluation of antitumor effect against Sarcoma 180. In the B16 melanoma experiment the tumor size was measured on day 16 after tumor inoculation, and the dose giving 50% inhibition of tumor growth (ID50) was calculated from regression lines.
(§2) The antitumor therapeutic index was calculated for each derivative from the ratio of toxicity and antitumor activity.

[1] = test system: Mycobacterium smegmatis strain M6-3; experiment: Relative antibacterial potency, paper-disc agar diffusion method; type: cell-based; settings: relative to tallysomycin A standard=1000 mcg/mg
Experimental: The relative antibacterial potencies (tallysomycin A standard=1000 mcg/mg) of the tallysomycin derivatives were determined by the paper-disc agar diffusion method using Mycobacterium smegmatis strain M6-3 as the assay organism.

[2] = test system: lysogenic bacterium E. coli W1709 (λ); experiment: Prophage induction of lysogenic bacterium (ILB activity); type: cell-based; settings: t/c ratio of plaque counts greater than 3.0
Experimental: The activity of prophage induction of lysogenic bacterium E. coli W1709 (λ) was determined according to the method disclosed by Lein et al. in Nature 196: 783-784 (1962). The plaque count was made on the agar plate containing test compound (t) and control plate (c). A t/c ratio of the plaque counts of greater than 3.0 was defined to be a significant level and lysogenic induction activity (ILB activity) was expressed by the minimum inducible concentration of the test compound.

[3] = test system: Lymphocytic leukemia P388; experiment: animal or person; type: in vivo, BDF1 mice; settings: copper-chelated form unless otherwise stated; for Antitumor activity P388 (ED125): ip, once daily 9 days, dose giving T/C survival of 125%; for Antitumor therapeutic index P388: single dose LD50/ED125
Text: as §1, §2

[4] = test system: Bacillus subtilis PCI 219; experiment: MIC, two-fold agar dilution method; type: cell-based; settings: nutrient agar
Experimental: (§3) The minimum inhibitory concentrations (MIC) of the semibiosynthetic tallysomycin derivatives of the present invention were determined against fungi and gram-positive, gram-negative and acid-fast bacteria by the two-fold agar dilution method. Nutrient agar was used for bacteria and Sabouraud agar for fungi. The results are shown in the table below comparatively with tallysomycin A and B.

[5] = test system: Aspergillus fumigatus IAM 2593; experiment: MIC, two-fold agar dilution method; type: cell-based; settings: Sabouraud agar
Experimental: as §3

Escherichia coli NIHJ = experiment: MIC, two-fold agar dilution method; type: cell-based; settings: nutrient agar
Experimental: as §3

Mycobacterium 607 = experiment: MIC, two-fold agar dilution method; type: cell-based; settings: nutrient agar
Experimental: as §3

[6] = test system: Staphylococcus aureus Smith; experiment: MIC, two-fold agar dilution method; type: cell-based; settings: nutrient agar
Experimental: as §3

Sarcina lutea PCI1001 = experiment: MIC, two-fold agar dilution method; type: cell-based; settings: nutrient agar
Experimental: as §3

Proteus mirabilis A9554 = experiment: MIC, two-fold agar dilution method; type: cell-based; settings: nutrient agar
Experimental: as §3

[7] = test system: Candida albicans IAM 4888; experiment: MIC, two-fold agar dilution method; type: cell-based; settings: Sabouraud agar
Experimental: as §3

[8] = Acute toxicity, single dose LD50; type: in vivo, dd mice; settings: ip, 30 days observation, copper-chelated form unless otherwise stated
Experimental: Graded doses of test compounds were administered intraperitoneally to groups of dd mice. The injection was given one time only or once daily for 9 consecutive days. Death or survival of the animals was recorded for 30 days after the last dose of test compound to calculate the single or multiple median lethal dose (LD50).

Melanotic melanoma B16 = experiment: Antitumor activity in mice, melanotic melanoma B16; type: in vivo, BDF1 mice; settings: copper-chelated form unless otherwise stated; for Antitumor activity B16 (ID50): ip, once daily 9 days, 50% inhibition of tumor growth, day 16, 23040 min; for Antitumor therapeutic index B16: single dose LD50/ID50
Text: as §1, §2

Lewis lung carcinoma = experiment: Antitumor activity in mice, Lewis lung carcinoma; type: in vivo, BDF1 mice; settings: copper-chelated form unless otherwise stated; for Antitumor activity Lewis lung (ED125): ip, once daily 11 days, dose giving T/C survival of 125%; for Antitumor therapeutic index Lewis Lung: single dose LD50/ED125
Text: as §1, §2

Row | SMILES | Antitumor activity S180 (ED150) (Sarcoma 180) | Antitumor therapeutic index S180 (Sarcoma 180) | Antibacterial potency [1] | ILB activity (minimum inducible concentration) [2] | Antitumor activity P388 (ED125) [3] | Antitumor therapeutic index P388 [3] | minimum inhibitory concentration (MIC) [4] | minimum inhibitory concentration (MIC) [5] | minimum inhibitory concentration (MIC) (Escherichia coli NIHJ) | minimum inhibitory concentration (MIC) (Mycobacterium 607) | minimum inhibitory concentration (MIC) [6] | minimum inhibitory concentration (MIC) (Sarcina lutea PCI1001) | minimum inhibitory concentration (MIC) (Proteus mirabilis A9554) | minimum inhibitory concentration (MIC) [7] | LD50 single dose [8] | Antitumor activity B16 (ID50) (Melanotic melanoma B16) | Antitumor therapeutic index B16 (Melanotic melanoma B16) | Antitumor activity Lewis lung (ED125) (Lewis lung carcinoma) | Antitumor therapeutic index Lewis Lung (Lewis lung carcinoma)
1 | Cc1c(N)nc(C(CC(N)=O)NCC(N)C(N)=O)nc1C(=O)NC(C(=O)NC(C)C(O)CC(=O)NC(C(=O)NC(OC1OC(C)C(N)C(O)C1O)C(O)c1nc(-c2nc(C(=O)NCCNCCO)cs2)cs1)C(C)O)C(OC1OC(CO)C(O)C(O)C1OC1OC(CO)C(O)C(OC(N)=O)C1O)c1c[nH]cn1 (stereo not shown) [Tallysomycin S9b] | 0.42 mg/kg/day | 76 | 380 μ/mg | 0.16 µg/mL | > 3.0 mg/kg/day | < 11 | 0.013 | 1.6 | 0.1 | 0.1 | 0.4 | 0.8 | 0.8 | 25 | 32 mg/kg/day | 0.29 mg/kg/day | 110 | 0.41 mg/kg/day | 78
2 | CNCCCNC(=O)c1csc(-c2csc(C(O)C(NC(=O)C(NC(=O)CC(O)C(C)NC(=O)C(NC(=O)c3nc(C(CC(N)=O)NCC(N)C(N)=O)nc(N)c3C)C(OC3OC(CO)C(O)C(O)C3OC3OC(CO)C(O)C(OC(N)=O)C3O)c3c[nH]cn3)C(C)O)OC3OC(C)C(N)C(O)C3O)n2)n1 (stereo not shown) [Tallysomycin S11b] | 0.20 mg/kg/day | 105 | 450 μ/mg | 0.63 µg/mL | 0.28 mg/kg/day | 75 | 0.1 | 6.3 | 0.2 | 0.1 | 3.1 | 0.8 | 1.6 | 12.5 | 21 mg/kg/day | 0.70 mg/kg/day | 30 | 0.32 mg/kg/day | 66
3 | Cc1c(N)nc(C(CC(N)=O)NCC(N)C(N)=O)nc1C(=O)NC(C(=O)NC(C)C(O)CC(=O)NC(C(=O)NC(OC1OC(C)C(N)C(O)C1O)C(O)c1nc(-c2nc(C(=O)NCCCN3CCOCC3)cs2)cs1)C(C)O)C(OC1OC(CO)C(O)C(O)C1OC1OC(CO)C(O)C(OC(N)=O)C1O)c1c[nH]cn1 (stereo not shown) [Tallysomycin S12b] | 0.06 mg/kg/day | > 833 | 390 μ/mg | 0.31 µg/mL | 1.30 mg/kg/day | > 38 | 0.4 | 25 | 1.6 | 0.2 | 12.5 | 12.5 | 50 | > 100 | > 50 mg/kg/day | 1.30 mg/kg/day | > 38 |  | 
4 | Cc1c(N)nc(C(CC(N)=O)NCC(N)C(N)=O)nc1C(=O)NC(C(=O)NC(C)C(O)CC(=O)NC(C(=O)NC(OC1OC(C)C(N)C(O)C1O)C(O)c1nc(-c2nc(C(=O)NCCCN3CCCCC3C)cs2)cs1)C(C)O)C(OC1OC(CO)C(O)C(O)C1OC1OC(CO)C(O)C(OC(N)=O)C1O)c1c[nH]cn1 (stereo not shown) [Tallysomycin S13b] | 0.33 mg/kg/day | 106 | 1,090 μ/mg | 0.08 µg/mL | 0.70 mg/kg/day | 50 | 0.8 | 12.5 | 0.4 | 0.2 | 6.3 | 6.3 | 12.5 | > 100 | 35 mg/kg/day | 0.23 mg/kg/day | 152 |  | 
5 | Cc1c(N)nc(C(CC(N)=O)NCC(N)C(N)=O)nc1C(=O)NC(C(=O)NC(C)C(O)CC(=O)NC(C(=O)NC(OC1OC(C)C(N)C(O)C1O)C(O)c1nc(-c2nc(C(=O)NCCCC(N)CC(=O)NCCCN)cs2)cs1)C(C)O)C(OC1OC(CO)C(O)C(O)C1OC1OC(CO)C(O)C(OC(N)=O)C1O)c1c[nH]cn1 (stereo not shown) [Tallysomycin S1a] | 0.07 mg/kg/day | 357 | 1,075 μ/mg | 0.16 µg/mL | 1.2 mg/kg/day | 21 | < 0.003 | 0.8 | 0.1 | 0.012 | 0.4 | 0.1 | 0.4 | 3.1 | 25 mg/kg/day | 0.84 mg/kg/day | 30 |  | 
6 | Cc1c(N)nc(C(CC(N)=O)NCC(N)C(N)=O)nc1C(=O)NC(C(=O)NC(C)C(O)CC(=O)NC(C(=O)NC(OC1OC(C)C(N)C(O)C1O)C(O)c1nc(-c2nc(C(=O)NCCCC(N)CC(=O)NCCCCN)cs2)cs1)C(C)O)C(OC1OC(CO)C(O)C(O)C1OC1OC(CO)C(O)C(OC(N)=O)C1O)c1c[nH]cn1 (stereo not shown) [Tallysomycin S10a] | 0.08 mg/kg/day | 338 | 1,450 μ/mg | 0.16 µg/mL | 0.28 mg/kg/day | 96 | 0.04 | 1.6 | 0.4 | 0.2 | 1.6 | 0.4 | 0.8 | 3.1 | 27 mg/kg/day | 0.39 mg/kg/day | 69 |  | 

— patent US4314028A, “Fermentation process for producing tallysomycin compounds” (priority 1980, dated 1982)
